Data set [1] has as its system Staphylococcus aureus. Nature of the data set: Antibacterial activity against Staphylococcus aureus ATCC 4163 after 18 hrs by microdilution method. Type of data set: functional. As to conditions: ATCC 4163, 18 h. On the technique in general: Dilution methods test growth across graded concentrations, often in twofold steps.
The subject of data set [2] is Staphylococcus aureus. Nature of the data set: Antibacterial activity against Staphylococcus aureus ATCC 25923 after 18 hrs by microdilution method. Type of data set: functional. Particulars: ATCC 25923, 18 h.
Data set [3] has as its system Staphylococcus aureus. Briefly: Antibacterial activity against Staphylococcus aureus ATCC 6538 after 18 hrs by microdilution method. Type of data set: functional. Particulars: ATCC 6538, 18 h.
Data set [4] relates to Staphylococcus epidermidis. Briefly: Antibacterial activity against Staphylococcus epidermidis ATCC 12228 after 18 hrs by microdilution method. Type of data set: functional. Particulars: ATCC 12228, 18 h.
The test system of data set [5] is Staphylococcus epidermidis. Briefly: Antibacterial activity against Staphylococcus epidermidis ATCC 49134 after 18 hrs by microdilution method. Particulars: ATCC 49134, 18 h. Type of data set: functional.
The subject of data set [6] is Staphylococcus aureus. Nature of the data set: Antibacterial activity against methicillin resistant Staphylococcus aureus isolate 1 after 18 hrs by microdilution method. Type of data set: functional. As to conditions: isolate 1, 18 h.
The subject of data set [7] is Staphylococcus aureus. Briefly: Antibacterial activity against methicillin resistant Staphylococcus aureus isolate 2 after 18 hrs by microdilution method. Type of data set: functional. As to conditions: isolate 2, 18 h.
Data set [8] concerns Staphylococcus aureus. Briefly: Antibacterial activity against methicillin resistant Staphylococcus aureus isolate 3 after 18 hrs by microdilution method. Type of data set: functional. As to conditions: isolate 3, 18 h.
Data set [9] deals with Staphylococcus aureus. Nature of the data set: Antibacterial activity against methicillin resistant Staphylococcus aureus isolate 4 after 18 hrs by microdilution method. Type of data set: functional. Particulars: isolate 4, 18 h.
Data set [10] relates to Staphylococcus aureus. Nature of the data set: Antibacterial activity against methicillin resistant Staphylococcus aureus isolate 5 after 18 hrs by microdilution method. Type of data set: functional. As to conditions: isolate 5, 18 h.
For a further data set, the system named is Escherichia coli. Briefly: Antibacterial activity against Escherichia coli ATCC 25922 after 18 hrs by microdilution method. Type of data set: functional. As to conditions: ATCC 25922, 18 h.
For a further data set, the system named is Pseudomonas aeruginosa. Nature of the data set: Antibacterial activity against Pseudomonas aeruginosa NCTC 6749 after 18 hrs by microdilution method. Type of data set: functional. As to conditions: NCTC 6749, 18 h.
Data set [11] can be described thus: Solubility in water at pH 7 by UV-vis spectrophotometric analysis. Type of data set: physicochemical.
Data set [12] in a line: Octanol-water partition coefficient, logP of the compound after 1 hr by UV-vis spectrophotometric analysis. Type of data set: physicochemical.

Converted amounts (≈) assume the structure as drawn. A value given as a limit tells only on which side of the number the result lay.

The MIC is the smallest concentration in the dilution series that meets the test's criterion for growth inhibition. A lower MIC goes with inhibition by little substance. As a reminder, the solubility is the dissolved amount per volume that the medium holds. As a reminder, the logP is the decadic logarithm of the partition coefficient of the neutral form, usually between octanol and water. A lower logP goes with a more hydrophilic compound.

For `COC(=O)[C@H](Cc1ccc(O)cc1)NCc1c2c(O)c3c(O)c(C)c4c(c3c1O)C(=O)[C@@](C)(O/C=C/[C@H](OC)[C@@H](C)[C@@H](OC(C)=O)[C@H](C)[C@H](O)[C@H](C)[C@@H](O)[C@@H](C)/C=C/C=C(/C)C(=O)N2)O4`, the MIC against Staphylococcus aureus [1] was determined as 0.5 µg/mL (≈ 0.552 µM); with Staphylococcus aureus [2], 1 µg/mL (≈ 1.1 µM); with Staphylococcus aureus [3], 0.5 µg/mL (≈ 0.552 µM); in [4], 0.063 µg/mL (≈ 0.0696 µM); in data set [5] it was 0.125 µg/mL (≈ 0.138 µM); in the data set with Staphylococcus aureus [6], 0.5 µg/mL (≈ 0.552 µM). For the same compound, the minimum inhibitory concentration (MIC) was 1 µg/mL (≈ 1.1 µM) against Staphylococcus aureus [7]; 1 µg/mL (≈ 1.1 µM) with Staphylococcus aureus [8]; 0.5 µg/mL (≈ 0.552 µM) against Staphylococcus aureus [9]; 0.5 µg/mL (≈ 0.552 µM) against Staphylococcus aureus [10]; greater than 2 µg/mL in the data set on Escherichia coli; greater than 2 µg/mL against Pseudomonas aeruginosa. This compound yielded a solubility in [11] of 60 µg/mL (≈ 66.3 µM). This compound also showed a log partition coefficient (logP) at 1 h in data set [12] of 1.88.

The record behind these values is ChEMBL document CHEMBL3797048, “Structure-activity relationship studies of new rifamycins containing l-amino acid esters as inhibitors of bacterial RNA polymerases” (Eur J Med Chem, 2016).
